The nature of data set [1]: Phase 2 trial: plasma concentrations. As to conditions: apixaban 5 mg bid. An excerpt: (§1) Pharmacodynamic and safety data are collected through Day 48 and PK through Day 10. A chromogenic assay was used to determine anti-fXa activity.
The nature of data set [2]: Total and unbound fXa inhibitor plasma concentration in rats. As to conditions: for fraction unbound: intravenous. Format: in vivo, rat. On the procedure: Total rivaroxaban plasma concentration at different time points from FIG. 10A was determined by LC-MS (solid line).
Similar experiments were carried out using betrixaban and apixaban infusion into anesthetized rats (FIG. 10B and FIG. 10C).
Blood sampling catheter patency was maintained by slow infusion of normal saline. Serial blood samples were obtained during the experimental time course. Total fXa inhibitor concentration was measured by HPLC with tandem mass spectrometry.

A short description of data set [3]: Phase 2 trial: anti-fXa activity (chromogenic assay) after apixaban and r-Antidote. Format: in vivo, human. As to conditions: apixaban 5 mg bid (11 doses).
Source text: as §1

Data set [4] concerns blood loss. In words: Mouse tail transection blood loss model. As to conditions: for blood loss: 15 min, mean±SD, rivaroxaban 50 mg/kg oral, ASA ~100 mg/kg/day 5 days, treatment as labelled. Format: in vivo. On the procedure: Mice (n=5-8/group) were first dosed orally with vehicle or aspirin at ˜100 mg/kg/day for 5 days. Rivaroxaban (50 mg/kg) or vehicle (5 mL/kg) was then dosed orally.
For the mouse tail transection blood loss model, mice (male, C57BL/6, Charles River) were first treated with aspirin at ˜100 mg/kg/day for 5 days via drinking water.

Data set [5] concerns prothrombin time (PT). In words: Prothrombin time in rabbit liver laceration model. As to conditions: for prolongation of PT: rivaroxaban 1 mg/kg, 30 min time point. Format: in vivo. On the procedure:
(§2) Anesthetized rabbits were administered vehicle or 1 mg/kg rivaroxaban via IV bolus injection. […] Total rivaroxaban concentration in plasma was measured by LC-MS/MS. […] Anti-fXa activity was measured using a modified chromogenic LMW heparin kit. PT and aPTT was measured using commercial reagents (HemosIL).
(§3) For human in vitro and rat ex vivo experiments, PT was measured using MLA Electra 800 automatic coagulation timer. Innovin was automatically dispensed to plasma samples (100 μL) per manufacturer's instructions. […] For rabbit experiments, PT and aPTT were measured using a Beckman Coulter ACL Elite instrument with HemosIL reagents (available commercially from Instrumentation Laboratories). Whole blood INR (International Normalized Ratio) for animal samples were measured by Hemchron Jr. Signature Cartridges (International Technidyne Corporation) according to manufacturer's instructions.
(§4) Rivaroxaban (1 mg/kg) or vehicle was dosed to anesthetized rabbits by IV bolus over 2 minutes via marginal ear vein catheter. […] Serial blood samples were collected at 0, 30, 35, and 50 minutes post rivaroxaban. Measurements included reduction in blood loss, decrease in unbound rivaroxaban in the plasma using equilibrium dialysis method, anti-fXa activity, PT and aPTT. The method for measuring PT is described previously in Example 6.

The test system of data set [6] is blood loss. As to the kind of experiment: Rabbit liver laceration blood loss model. Format: in vivo. As to conditions: for increase in blood loss compared with vehicle: rivaroxaban 1 mg/kg IV bolus. On the procedure:
Rivaroxaban (1 mg/kg) or vehicle was dosed by IV bolus over 2 minutes via marginal ear vein catheter. […] Riva=Rivaroxaban; g=gram
as §2
Anesthetized rabbits were administered vehicle or 1 mg/kg rivaroxaban via IV bolus injection. […] As in the rodent model, total and free rivaroxaban concentration in plasma, anti-fXa activity and PT and activated partial thromboplastin times (aPTT) was measured.
as §4

Data set [7] is described as follows: Total and free rivaroxaban concentration in rabbit plasma. Format: in vivo. As to conditions: for concentration at 30 min: male, NZW, rabbit, plasma. On the procedure:
as §2, §4

Data set [8] can be described thus: Total rivaroxaban concentration in mouse plasma. As to conditions: following r-Antidote administration (Treat-V).
Data set [9] relates to activated partial thromboplastin time (aPTT). As to the kind of experiment: Activated partial thromboplastin time in rabbit liver laceration model. Format: in vivo. As to conditions: for prolongation of aPTT: rivaroxaban 1 mg/kg, 30 min time point. On the procedure: as §2, §3, §4
In data set [10] the test system is prothrombin time (PT). In words: Prothrombin time in human plasma in vitro. Format: biochemical. As to conditions: rivaroxaban 1 μM. On the procedure:
as §3

The subject of data set [11] is blood loss. In words: Rat tail transection model, r-Antidote bolus plus infusion after enoxaparin or fondaparinux. As to conditions: fondaparinux 25 mg/kg; protamine 0.9 mg/rat IV bolus; p=0.39. Format: in vivo.
Procedure: Enoxaparin (4.5 mg/kg) or vehicle was dosed by IV bolus over 5 min, followed by treatment with vehicle or two different doses of r-Antidotc (2 mg/rat bolus plus 2 mg/hr infusion and 4 mg/rat bolus plus 4 mg/hr infusion) starting at 10 min. […] Protamine was dosed as an IV bolus only (0.9 mg/rat). […] Anti-fXa activity was normalized to the activity of Treat-II at 5 min time point. *** P-value (Treat-III vs. Treat-II)≤0.0001.
The collected blood samples were processed by freezing the samples at −80° C. to lyse erythrocytes. Hemoglobin concentration and corresponding blood volume were quantified spectrophotometrically (Absorbance at 490 nm) from a standard curve constructed with known volumes of blood.
In data set [12] the test system is blood loss. In words: Rat tail transection treatment model, r-Antidote given after bleeding initiated. Format: in vivo. As to conditions: enoxaparin-treated group. On the procedure: In a pilot study using this antidote treatment model, anesthetized rats were intravenously (IV) administered either vehicle or enoxaparin (4.5 mg/kg, IV bolus) followed by tail transection at 5 min post-dosing.
Anesthetized rats were administered enoxaparin (4.5 mg/kg) or vehicle by I.V. bolus injection followed by tail transection (2 mm from tip) 5 minutes later. […] The tip of the tail was placed in physiologic saline at 37° C. and blood collected for an additional 45 minutes after tail transection. Blood was lysed by diluting in water and freezing at −80° C. overnight. […] Anti-fXa activity of enoxaparin was measured using a modified chromogenic LMW heparin kit. Tissue factor (TF)-initiated thrombin generation was carried out in human plasma using a fluorogenic thrombin substrate by measurement of change of relative fluorescence unit (RFU) for 10 min following initiation of the reaction.

Where [13] appears, read: upon administration of r-Antidote.
Setting [14] is: 30 minutes post rivaroxaban (before treatment).

Values joined by “and” are separate entries in the source; they are usually repeats but may differ in a detail not shown here. Equal values may be shown once. Bounds are passed on as bounds.

The record followed here is patent US20200129597A1, “MODULATION OF FACTOR Xa INHIBITOR-MEDIATED BLOOD LOSS BY PARTIAL AND TRANSIENT ADMINISTRATION OF ANTIDOTE” (Portola Pharmaceuticals, Inc., priority 2012, published 2020).

In the case of `COc1ccc(-n2nc(C(N)=O)c3c2C(=O)N(c2ccc(N4CCCCC4=O)cc2)CC3)cc1` [apixaban], the “mean apixaban plasma concentration” value in [1] is given as 474 nM. Further, the fraction unbound in data set [2] (male, SD, rat, plasma) came out at 0.0005. In [2] (male, SD, rat, plasma, iv), this molecule had a concentration at 30 min of 1400 nM and a fraction unbound at 30 min of 0.015. In addition, in [2] (setting [13]), the concentration at 30 min stood at 4200 nM. In data set [3], the “time of peak anti-fXa activity post last apixaban dose” value is 3 h.
The molecule `CC(=O)Oc1ccccc1C(=O)O` [aspirin] registered a blood loss with blood loss [4] of 118 ± 71 µL.
In the case of `COc1ccc(NC(=O)c2ccc(C(=N)N(C)C)cc2)c(C(=O)Nc2ccc(Cl)cn2)c1` [betrixaban], the fraction unbound in data set [2] (male, SD, rat, plasma) worked out at 0.003. For the same molecule, the concentration at 30 min in data set [2] (male, SD, rat, plasma, iv) came out at 200 nM; in data set [2] (setting [13]) it was 2000 nM. For the same molecule, in [2] (male, SD, rat, plasma, iv), the fraction unbound at 30 min was determined as 0.41.
On to `O=C(NC[C@H]1CN(c2ccc(N3CCOCC3=O)cc2)C(=O)O1)c1ccc(Cl)s1` [rivaroxaban], for which the blood loss in the data set on blood loss [4] amounted to 216 ± 222 µL; in the data set on blood loss [6] (rivaroxaban group, 15 min collection) it was 22.7±9.3 grams. The “increase in blood loss” value with blood loss [4] (ASA-treated mice (~100 mg/kg/day, 5 days), single oral Riva 50 mg/kg, Riva+ASA vs. ASA) was 3.4 fold. For the same molecule, the “Prothrombin Times” value in the data set with prothrombin time (PT) [5] (0 minutes post rivaroxaban) was determined as 6.2 ± 0.4 s; in the data set with prothrombin time (PT) [5] (setting [14]), 15.8 ± 1.5 s; with prothrombin time (PT) [5] (35 minutes post rivaroxaban), 15.0 ± 1.6 s; in the data set with prothrombin time (PT) [5] (50 minutes post rivaroxaban), 13.8 ± 1.3 s. For the same molecule, the “prolongation of PT” value in the data set on prothrombin time (PT) [5] was 2.3 fold and 2.5 fold; with prothrombin time (PT) [5] (listed as Rivaroxaban), 2.3 fold. In the data set with blood loss [6] (rivaroxaban 1 mg/kg), the “blood loss due to rivaroxaban anticoagulation as share of total blood volume” value is reported as “approximately 10%”. Besides, the “increase in blood loss compared with vehicle” value in the data set with blood loss [6] was 3.2 fold and > 3 fold; in the data set on blood loss [6] (listed as Rivaroxaban) it was 3.2 fold. The “free (non-protein bound) fraction of rivaroxaban in plasma” value is less than 0.5% in [7] (after r-Antidote 75 mg/rabbit) and 26% in [7] (before r-Antidote). Besides, the concentration at 30 min in data set [7] (intravenous, 1 mg/kg, just prior to treatment, dose group as labelled) was 1200 nM; in data set [7] (30 min time point, 1 mg/kg IV) it was 1650 nM; in [2] (male, SD, rat, plasma, iv), 1400 nM; in data set [2] (setting [13]), 1900 nM. In [8], the “increase of total rivaroxaban concentration in plasma” value came out at 7.8 fold. Besides, the “Activated Partial Thromboplastin Times” value in data set [9] (0 minutes post rivaroxaban) is 28 ± 5 s; in [9] (setting [14]), 49 ± 8 s; in [9] (35 minutes post rivaroxaban), 48 ± 8 s; in data set [9] (50 minutes post rivaroxaban) it was 48 ± 8 s. For the same molecule, the “prolongation of aPTT” value in data set [9] is 1.9 fold and 1.8 fold; in [9] (listed as Rivaroxaban), 1.9 fold. Besides, in the data set on prothrombin time (PT) [10], the “effect on prothrombin time” value is “prolongation of prothrombin time”. In [2] (male, SD, rat, plasma, iv), this molecule gave a fraction unbound at 30 min of 0.022.
Regarding Protamine, the “effect on fondaparinux anticoagulation” value in the data set with blood loss [11] is given as “no statistically significant effect”.
In the case of enoxaparin, in the data set on blood loss [12], the “share of blood loss occurring within first 10 min prior to treatment” value is listed as approximately 26% and the “total blood loss as share of animal's total blood volume” value is “about 5%”.
